Data taken from patent publication US6737383B1, “Herbicidal oxadiazolidines” (priority 1999, dated 2004).

What was measured:
rice = assay: Test B flood test rice; format: in vivo, Oryza sativa; conditions: Pre-emergence
Outline: (§1)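 Flood test on plants grown to the 2-leaf stage; treated plants kept in greenhouse twelve to sixteen days, then visually rated against controls on a 0 (no effect) to 10 (complete control) scale.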

crabgrass = assay: Test B pre/postemergence crabgrass; format: in vivo, Digitaria sanguinalis; conditions: for Plant response rating, Crabgrass: Postemergence; for Crabgrass plant response rating: scale of 0 to 10 where 0 is no effect and 10 is complete control
Outline: (§2)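 Response is a visual 0-to-10 score relative to untreated plants, where 0 means no effect and 10 means complete control, taken twelve to sixteen days after application. Treatments went onto soil at planting and onto foliage of 1- to 4-leaf plants, using a surfactant-containing non-phytotoxic solvent.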

wheat = assay: Test B pre/postemergence wheat; format: in vivo, Triticum aestivum; conditions: for Plant response rating, Wheat: Postemergence; for Wheat plant response rating: scale of 0 to 10 where 0 is no effect and 10 is complete control
Outline: as §2

soybean = assay: Test B pre/postemergence soybean; format: in vivo, Glycine max; conditions: for Plant response rating, Soybean: Postemergence; for Soybean plant response rating: scale of 0 to 10 where 0 is no effect and 10 is complete control
Outline: as §2

surinam grass = assay: Test B pre/postemergence surinam grass; format: in vivo, Brachiaria decumbens; conditions: for Plant response rating, B. signalgrass: Postemergence
Outline: as §2

rape = assay: Test B pre/postemergence rape; format: in vivo, Brassica napus; conditions: for Plant response rating, Rape: Postemergence; for Rape plant response rating: scale of 0 to 10 where 0 is no effect and 10 is complete control
Outline: as §2

cocklebur = assay: Test B pre/postemergence cocklebur; format: in vivo, Xanthium strumarium; conditions: for Plant response rating, Cocklebur: Postemergence; for Cocklebur plant response rating: scale of 0 to 10 where 0 is no effect and 10 is complete control
Outline: as §2

duck salad = assay: Test B flood test duck salad; format: in vivo, Heteranthera limosa; conditions: Pre-emergence
Outline: as §1

bedstraw = assay: Test B pre/postemergence bedstraw; format: in vivo, Galium aparine; conditions: for Plant response rating, Bedstraw: Postemergence
Outline: as §2

pigweed = assay: Test B pre/postemergence pigweed; format: in vivo, Amaranthus retroflexus; conditions: for Plant response rating, Redroot pigweed: Postemergence; for Redroot pigweed plant response rating: scale of 0 to 10 where 0 is no effect and 10 is complete control
Outline: as §2

blackgrass = assay: Test B pre/postemergence blackgrass; format: in vivo, Alopecurus myosuroides; conditions: for Plant response rating, Blackgrass: Postemergence
Outline: as §2

giant foxtail = assay: Test B pre/postemergence giant foxtail; format: in vivo, Setaria faberii; conditions: for Plant response rating, Giant foxtail: Postemergence; for Giant foxtail plant response rating: Preemergence, scale of 0 to 10 where 0 is no effect and 10 is complete control
Outline: as §2

wild oat = assay: Test B pre/postemergence wild oat; format: in vivo, Avena fatua; conditions: for Plant response rating, Wild oats: Postemergence; for Wild oats plant response rating: scale of 0 to 10 where 0 is no effect and 10 is complete control
Outline: as §2

morningglory = assay: Test B pre/postemergence morningglory; format: in vivo, Ipomoea hederacea; conditions: for Plant response rating, Morningglory: Postemergence; for Morningglory plant response rating: scale of 0 to 10 where 0 is no effect and 10 is complete control
Outline: as §2

corn = assay: Test B pre/postemergence corn; format: in vivo, Zea mays; conditions: for Plant response rating, Corn: Postemergence; for Corn plant response rating: scale of 0 to 10 where 0 is no effect and 10 is complete control
Outline: as §2

sugar beet = assay: Test B pre/postemergence sugar beet; format: in vivo, Beta vulgaris; conditions: for Plant response rating, Sugarbeets: Postemergence; for Sugarbeets plant response rating: scale of 0 to 10 where 0 is no effect and 10 is complete control
Outline: as §2

velvetleaf = assay: Test B pre/postemergence velvetleaf; format: in vivo, Abutilon theophrasti; conditions: for Plant response rating, Velvetleaf: Postemergence; for Velvetleaf plant response rating: scale of 0 to 10 where 0 is no effect and 10 is complete control
Outline: as §2

purple nutsedge = assay: Test B pre/postemergence purple nutsedge; format: in vivo, Cyperus rotundus; conditions: for Plant response rating, Nutsedge: Postemergence; for Nutsedge plant response rating: scale of 0 to 10 where 0 is no effect and 10 is complete control
Outline: as §2

smallflower flatsedge = assay: Test B flood test smallflower flatsedge; format: in vivo, Cyperus difformis; conditions: Pre-emergence
Outline: as §1

bamyardgrass = assay: Test B flood test barnyardgrass; format: in vivo, Echinochloa crus-galli; conditions: Pre-emergence
Outline: as §1

[1] = Rate 1000 g/ha, scale 0 to 10 (0 no effect, 10 complete control)
[2] = Rate 125 g/ha, flood test species, scale 0 to 10 where 0 is no effect and 10 is complete control
[3] = Rate 250 g/ha, flood-test species, scale 0 to 10, 0 is no effect, 10 is complete control
[4] = Rate 500 g/ha, flood test species, scale 0 to 10 (0 no effect, 10 complete control)
[5] = Rate 125 g/ha, scale 0 to 10, 0 is no effect, 10 is complete control
[6] = Rate 500 g/ha, scale 0 to 10, 0 no effect, 10 complete control
[7] = Preemergence, Rate 250 g/ha, scale of 0 to 10 where 0 is no effect and 10 is complete control
[8] = Preemergence, Rate 500 g/ha, scale of 0 to 10 where 0 is no effect and 10 is complete control
[9] = Rate 250 g/ha, scale of 0 to 10 where 0 is no effect and 10 is complete control

CCOC(=O)C(C)N(C(=O)n1oc(=O)n(-c2c(C)cccc2OC)c1=O)c1ccc(F)cc1 (centres unmarked) [Compound 331]
0: Rice plant response rating (rice; [1]) | Rice plant response rating (rice; [2]) | Rice plant response rating (rice; [3]) | Rice plant response rating (rice; [4]) | Plant response rating, Crabgrass (crabgrass; [5]) | Crabgrass plant response rating (0 to 10 scale) (crabgrass; Preemergence, Rate 125 g/ha) | Crabgrass plant response rating (crabgrass; Preemergence, Rate 250 g/ha) | Crabgrass plant response rating (crabgrass; Preemergence, Rate 500 g/ha) | Plant response rating, Crabgrass (crabgrass; [6]) | Plant response rating, Wheat (wheat; [5]) | Wheat plant response rating (0 to 10 scale) (wheat; Preemergence, Rate 125 g/ha) | Wheat plant response rating (wheat; Preemergence, Rate 250 g/ha) | Wheat plant response rating (wheat; Preemergence, Rate 500 g/ha) | Plant response rating, Wheat (wheat; [6]) | Plant response rating, Soybean (soybean; [5]) | Soybean plant response rating (0 to 10 scale) (soybean; Preemergence, Rate 125 g/ha) | Soybean plant response rating (soybean; Preemergence, Rate 250 g/ha) | Soybean plant response rating (soybean; Preemergence, Rate 500 g/ha) | Plant response rating, Soybean (soybean; [6]) | Plant response rating, B. signalgrass (surinam grass; [5]) | B. signalgrass plant response rating (0 to 10 scale, 0 is no effect, 10 is complete control) (surinam grass; Preemergence, Rate 125 g/ha) | B. signalgrass plant response rating (surinam grass; [7]) | B. signalgrass plant response rating (surinam grass; [8]) | Plant response rating, B. signalgrass (surinam grass; [9]) | Plant response rating, B. signalgrass (surinam grass; [6]) | Plant response rating, Rape (rape; [5]) | Rape plant response rating (0 to 10 scale) (rape; Preemergence, Rate 125 g/ha) | Rape plant response rating (rape; Preemergence, Rate 250 g/ha) | Rape plant response rating (rape; Preemergence, Rate 500 g/ha) | Plant response rating, Rape (rape; [6]) | Plant response rating, Cocklebur (cocklebur; [5]) | Cocklebur plant response rating (0 to 10 scale) (cocklebur; Preemergence, Rate 125 g/ha) | Cocklebur plant response rating (cocklebur; Preemergence, Rate 250 g/ha) | Cocklebur plant response rating (cocklebur; Preemergence, Rate 500 g/ha) | Plant response rating, Cocklebur (cocklebur; [6]) | Ducksalad plant response rating (duck salad; [1]) | Ducksalad plant response rating (duck salad; [2]) | Ducksalad plant response rating (duck salad; [3]) | Ducksalad plant response rating (duck salad; [4]) | Plant response rating, Bedstraw (bedstraw; [5]) | Bedstraw plant response rating (bedstraw; [8]) | Plant response rating, Bedstraw (bedstraw; [6]) | Plant response rating, Redroot pigweed (pigweed; [5]) | Redroot pigweed plant response rating (0 to 10 scale) (pigweed; Preemergence, Rate 125 g/ha) | Redroot pigweed plant response rating (pigweed; Preemergence, Rate 250 g/ha) | Redroot pigweed plant response rating (pigweed; Preemergence, Rate 500 g/ha) | Plant response rating, Redroot pigweed (pigweed; [6]) | Plant response rating, Blackgrass (blackgrass; [5]) | Blackgrass plant response rating (0 to 10 scale) (blackgrass; Preemergence, Rate 125 g/ha) | Blackgrass plant response rating (blackgrass; [7]) | Blackgrass plant response rating (blackgrass; [8]) | Plant response rating, Blackgrass (blackgrass; [9]) | Plant response rating, Blackgrass (blackgrass; [6]) | Plant response rating, Giant foxtail (giant foxtail; [5]) | Giant foxtail plant response rating (giant foxtail; Rate 250 g/ha) | Giant foxtail plant response rating (giant foxtail; Rate 500 g/ha) | Plant response rating, Giant foxtail (giant foxtail; [6]) | Plant response rating, Wild oats (wild oat; [5]) | Wild oats plant response rating (0 to 10 scale) (wild oat; Preemergence, Rate 125 g/ha) | Wild oats plant response rating (wild oat; Preemergence, Rate 250 g/ha) | Wild oats plant response rating (wild oat; Preemergence, Rate 500 g/ha) | Plant response rating, Wild oats (wild oat; [6]) | Plant response rating, Morningglory (morningglory; [5]) | Morningglory plant response rating (0 to 10 scale) (morningglory; Preemergence, Rate 125 g/ha) | Morningglory plant response rating (morningglory; Preemergence, Rate 250 g/ha) | Morningglory plant response rating (morningglory; Preemergence, Rate 500 g/ha) | Plant response rating, Morningglory (morningglory; [6]) | Plant response rating, Corn (corn; [5]) | Corn plant response rating (0 to 10 scale) (corn; Preemergence, Rate 125 g/ha) | Corn plant response rating (corn; Preemergence, Rate 250 g/ha) | Corn plant response rating (corn; Preemergence, Rate 500 g/ha) | Plant response rating, Corn (corn; [6]) | Plant response rating, Sugarbeets (sugar beet; [5]) | Sugarbeets plant response rating (0 to 10 scale) (sugar beet; Preemergence, Rate 125 g/ha) | Sugarbeets plant response rating (sugar beet; Preemergence, Rate 250 g/ha) | Sugarbeets plant response rating (sugar beet; Preemergence, Rate 500 g/ha) | Plant response rating, Sugarbeets (sugar beet; [6]) | Plant response rating, Velvetleaf (velvetleaf; [5]) | Velvetleaf plant response rating (0 to 10 scale) (velvetleaf; Preemergence, Rate 125 g/ha) | Velvetleaf plant response rating (velvetleaf; Preemergence, Rate 250 g/ha) | Velvetleaf plant response rating (velvetleaf; Preemergence, Rate 500 g/ha) | Plant response rating, Velvetleaf (velvetleaf; [6]) | Plant response rating, Nutsedge (purple nutsedge; [5]) | Nutsedge plant response rating (0 to 10 scale) (purple nutsedge; Preemergence, Rate 125 g/ha) | Nutsedge plant response rating (purple nutsedge; Preemergence, Rate 250 g/ha) | Nutsedge plant response rating (purple nutsedge; Preemergence, Rate 500 g/ha) | Plant response rating, Nutsedge (purple nutsedge; [6]) | S. Flatsedge plant response rating (smallflower flatsedge; [1]) | S. Flatsedge plant response rating (smallflower flatsedge; [2]) | S. Flatsedge plant response rating (smallflower flatsedge; [3]) | S. Flatsedge plant response rating (smallflower flatsedge; [4]) | Barnyardgrass plant response rating (bamyardgrass; [1]) | Barnyardgrass plant response rating (bamyardgrass; [2]) | Barnyardgrass plant response rating (bamyardgrass; [3]) | Barnyardgrass plant response rating (bamyardgrass; [4])
